The text below walks through data of ChEMBL document CHEMBL5137117, “Cytotoxic Cyclotides from Anchietea pyrifolia, a South American Plant Species” (J Nat Prod, 2022).

Data set [1] is described as follows: Cytotoxicity against human HCT116-p53-null cells assessed as inhibition of cell growth measured after 72 hrs by MTT assay. It counts as functional, cell-based. (In general: Tetrazolium assays rely on reduction of a dye to a coloured formazan, in cell work by metabolically active cells.)
The nature of data set [2]: Hemolytic activity in human red blood cells incubated for 2 hrs by microplate reader assay. It counts as toxicity, cell-based, Erythrocyte. The conditions noted are these: red blood cells (erythrocytes), read-out: HD50.
Data set [3] has as its system MCF7. As to the kind of experiment: Cytotoxicity against human MCF7 cells assessed as inhibition of cell growth measured after 72 hrs by MTT assay. It counts as functional, cell-based. The conditions noted are these: MCF7, 72 h.
The subject of data set [4] is HCT-116. As to the kind of experiment: Cytotoxicity against human HCT-116 cells assessed as inhibition of cell growth measured after 72 hrs by MTT assay. The conditions noted are these: HCT-116, 72 h. It counts as functional, cell-based.
Data set [5] in a line: Hemolytic activity in human red blood cells at 78 uM incubated for 2 hrs by microplate reader assay relative to control. It counts as toxicity, cell-based, Erythrocyte. The conditions noted are these: red blood cells (erythrocytes), read-out: Activity.

Bridge positions count the residues as written; N and C are the ends. Peptide text beside a SMILES is read from it.

As for `CC[C@H](C)[C@@H]1NC(=O)[C@H](C)NC(=O)[C@H](C)NC(=O)[C@H](CO)NC(=O)[C@H]([C@@H](C)CC)NC(=O)[C@@H]2CSSC[C@@H]3NC(=O)[C@H](C(C)C)NC(=O)[C@H](CCCCN)NC(=O)[C@H](CC(N)=O)NC(=O)[C@H](CCCCN)NC(=O)[C@@H]4CSSC[C@H](NC(=O)[C@H](CO)NC(=O)[C@H](CCC(=O)O)NC(=O)CNC(=O)[C@H](CSSC[C@H](NC(=O)CNC1=O)C(=O)N[C@@H](CO)C(=O)N4)NC(=O)[C@@H]1CCCN1C(=O)[C@H]([C@@H](C)CC)NC(=O)CNC(=O)[C@H](CC(N)=O)NC(=O)[C@H](CCCNC(=N)N)NC(=O)[C@H](Cc1ccc(O)cc1)NC3=O)C(=O)N[C@@H](C(C)C)C(=O)N[C@@H](Cc1c[nH]c3ccccc13)C(=O)N[C@@H]([C@@H](C)CC)C(=O)N1CCC[C@H]1C(=O)N2` (cyclo(AAIGCSCKNKVCYRNGIPCGESCVWIPCIS); disulfide 5-19, 7-23, 12-28), the IC50 amounted to 1.2 µM in data set [1], 5.6 µM in data set [3] and 0.8 µM in data set [4]. In addition, the HC50 at 2 h in data set [2] is over 156 µM. The hemolysis at 2 h, 78 µM in data set [5] stood at 23%.

Consider `CC[C@H](C)[C@@H]1NC(=O)[C@H](CO)NC(=O)[C@H](CC(N)=O)NC(=O)[C@H](CCCCN)NC(=O)[C@H](Cc2ccc(O)cc2)NC(=O)[C@@H]2CSSC[C@@H]3NC(=O)[C@@H]4CCCN4C(=O)[C@H]([C@@H](C)CC)NC(=O)[C@H](Cc4c[nH]c5ccccc45)NC(=O)[C@H](C(C)C)NC(=O)[C@@H]4CSSC[C@H](NC(=O)[C@H](CO)NC(=O)[C@H](CSSC[C@H](NC(=O)[C@@H]5CCCN5C1=O)C(=O)NCC(=O)N[C@@H](CCC(=O)O)C(=O)N[C@@H](CO)C(=O)N4)NC(=O)CNC(=O)[C@H](C)NC(=O)[C@H](CC(C)C)NC(=O)[C@H](C)NC(=O)[C@H]([C@@H](C)O)NC(=O)[C@H](C(C)C)NC(=O)[C@H]([C@@H](C)O)NC3=O)C(=O)N[C@@H](CCCCN)C(=O)N[C@@H](CC(N)=O)C(=O)N[C@@H](CCCCN)C(=O)N[C@@H](C(C)C)C(=O)N2` (cyclo(AGCSCKNKVCYKNSIPCGESCVWIPCTVTAL); disulfide 3-17, 5-21, 10-26), for which the IC50 is 2.3 µM in data set [1], 7.3 µM in data set [3] and 1.4 µM in data set [4]. Also, in data set [2], the HC50 at 2 h was over 78 µM. Besides, the hemolysis at 2 h, 78 µM in data set [5] was under 50%.

Turning to `CC[C@H](C)[C@@H]1NC(=O)[C@H](C)NC(=O)[C@H](CO)NC(=O)[C@H](CO)NC(=O)[C@H]([C@@H](C)CC)NC(=O)[C@@H]2CSSC[C@@H]3NC(=O)[C@H](C(C)C)NC(=O)[C@H](CCCCN)NC(=O)[C@H](CC(N)=O)NC(=O)[C@H](CCCCN)NC(=O)[C@@H]4CSSC[C@H](NC(=O)[C@H](CO)NC(=O)[C@H](CCC(=O)O)NC(=O)CNC(=O)[C@H](CSSC[C@H](NC(=O)CNC1=O)C(=O)N[C@@H](CO)C(=O)N4)NC(=O)[C@@H]1CCCN1C(=O)[C@H]([C@@H](C)CC)NC(=O)CNC(=O)[C@H](CC(N)=O)NC(=O)[C@H](CCCNC(=N)N)NC(=O)[C@H](Cc1ccc(O)cc1)NC3=O)C(=O)N[C@@H](C(C)C)C(=O)N[C@@H](Cc1c[nH]c3ccccc13)C(=O)N[C@@H]([C@@H](C)CC)C(=O)N1CCC[C@H]1C(=O)N2` (cyclo(AIGCSCKNKVCYRNGIPCGESCVWIPCISS); disulfide 4-18, 6-22, 11-27), the IC50 in data set [1] worked out at 2.1 µM; in data set [3] it was 7.1 µM; in data set [4], 1.4 µM. Further, in data set [2], the HC50 at 2 h is over 156 µM.

As to `CC[C@H](C)[C@@H]1NC(=O)[C@H](C)NC(=O)[C@H]([C@@H](C)O)NC(=O)[C@H](C(C)C)NC(=O)[C@H]([C@@H](C)O)NC(=O)[C@@H]2CSSC[C@@H]3NC(=O)[C@H](C(C)C)NC(=O)[C@H](CCCCN)NC(=O)[C@H](CO)NC(=O)[C@H](CCCCN)NC(=O)[C@@H]4CSSC[C@H](NC(=O)[C@H](CO)NC(=O)[C@H](CCC(=O)O)NC(=O)CNC(=O)[C@H](CSSC[C@H](NC(=O)CNC(=O)[C@H]([C@@H](C)CC)NC1=O)C(=O)N[C@@H](CO)C(=O)N4)NC(=O)[C@@H]1CCCN1C(=O)[C@H](CC(C)C)NC(=O)CNC(=O)[C@H](CC(N)=O)NC(=O)[C@H](CCCCN)NC(=O)[C@H](Cc1ccc(O)cc1)NC3=O)C(=O)N[C@@H](C(C)C)C(=O)N[C@@H](Cc1ccccc1)C(=O)N[C@@H](CC(C)C)C(=O)N1CCC[C@H]1C(=O)N2` (cyclo(AIIGCSCKSKVCYKNGLPCGESCVFLPCTVT); disulfide 5-19, 7-23, 12-28), the figures for the IC50 in data set [1], in data set [3] and in data set [4] were 1.3 µM, 5.8 µM and 1.1 µM, respectively.

Regarding `CC[C@H](C)[C@@H]1NC(=O)CNC(=O)[C@H](CO)NC(=O)[C@H]([C@@H](C)CC)NC(=O)[C@@H]2CSSC[C@@H]3NC(=O)[C@H](C(C)C)NC(=O)[C@H](CCCCN)NC(=O)[C@H](CC(N)=O)NC(=O)[C@H](CO)NC(=O)[C@@H]4CSSC[C@H](NC(=O)[C@H](CO)NC(=O)[C@H](CCC(=O)O)NC(=O)CNC(=O)[C@H](CSSC[C@H](NC(=O)CNC(=O)[C@H](CC(C)C)NC1=O)C(=O)N[C@@H](CO)C(=O)N4)NC(=O)[C@@H]1CCCN1C(=O)[C@H](C(C)C)NC(=O)[C@H](CO)NC(=O)CNC(=O)[C@H](CC(N)=O)NC(=O)[C@H](Cc1ccc(O)cc1)NC(=O)[C@H](Cc1ccc(O)cc1)NC3=O)C(=O)N[C@@H](C(C)C)C(=O)N[C@@H](Cc1c[nH]c3ccccc13)C(=O)N[C@@H]([C@@H](C)CC)C(=O)N1CCC[C@H]1C(=O)N2` (cyclo(CGESCVWIPCISGILGCSCSNKVCYYNGSVP); disulfide 1-17, 5-19, 10-24), the values for the IC50 in data set [1], in data set [3] and in data set [4] were 2.6 µM, 5.1 µM and 2.3 µM, respectively. Besides, the HC50 at 2 h in data set [2] was 22 µM. The hemolysis at 2 h, 78 µM in data set [5] amounted to 87%.

As to `COc1cccc2c1C(=O)c1c(O)c3c(c(O)c1C2=O)C[C@@](O)(C(=O)CO)C[C@@H]3O[C@H]1C[C@H](N)[C@H](O)[C@H](C)O1` [DOXORUBICIN], in data set [3], the IC50 came out at 0.5 µM.

The term IC50 denotes the midpoint of a concentration-inhibition curve.
